These results are taken from ChEMBL document CHEMBL4706608, “Design and synthesis of 3-(4-pyridyl)-5-(4-sulfamido-phenyl)-1,2,4-oxadiazole derivatives as novel GSK-3β inhibitors and evaluation of their potential as multifunctional anti-Alzheimer agents” (Eur J Med Chem, 2021).

One may read the efflux ratio as the permeability from basolateral to apical divided by that in the opposite direction, in the common usage. One may read the IC50 as the midpoint of a concentration-inhibition curve.

The source made the active and inactive calls. No cut-off for these calls is given here.

Series [1] relates to SH-SY5Y. Description: Inhibition of H2O2-induced intracellular ROS production in human SH-SY5Y cells pretreated for 6 hrs followed by H2O2 addition measured after 18 hrs by DCFH-DA assay. It counts as functional, cell-based. As to conditions: dose 1-50 µM, time 24.0 hrs.
In series [2] the test system is PC-12. Description: Neuroprotective activity against H2O2-induced cytotoxicity in rat PC12 cells assessed as increase in cell viability at 10 uM preincubated for 3 hrs followed by H2O2 addition and measured after 24 hrs by MTT assay (reference value: 24.8 to 41.7%). It counts as functional. Background: Formazan colour is commonly taken as a measure of viable cells.

Series [3] deals with BV-2. Description: Antiinflammatory activity in LPS-stimulated mouse BV-2 cells assessed as decrease in cox-2 level at 1 to 10 uM preincubated for 1 hr followed by LPS addition measured after 24 hrs by Western blot analysis. As to conditions: dose 1-10 µM, time 25.0 hrs. It counts as functional, cell-based. On the technique in general: In western blotting, separated proteins are transferred to a membrane and probed.

The test system of series [4] is HepG2. Description: Cytotoxicity against human HepG2 cells assessed as cell viability at 10 to 50 uM after 24 hrs by MTT assay. As to conditions: hepg2, 24 h, dose 10-50 µM. It counts as cell-based.
The subject of series [5] is Mus musculus. Description: Cognitive enhancing effect in C57BL mouse model of scopolamine-induced memory impairment assessed as number of virtual platform crossing at 10 to 30 mg/kg, po administered for 7 days and measured after 30 mins at 5th day of training session by Morris water maze test. The note with it: dose 10-30 mg/kg, time 7.0 day. It counts as functional, organism-based.

Series [6] can be described thus: Effect on swimming speed in C57BL mouse model of scopolamine-induced memory impairment model at 10 to 30 mg/kg, po administered for 7 days. As to conditions: in vivo, 168 h, dose 10-30 mg/kg, time 7 day. It counts as ADME, organism-based.
For series [7], the system named is Mus musculus. Description: Cognitive enhancing effect in orally dosed C57BL mouse model of scopolamine-induced memory impairment assessed as escape latency administered for 7 days and measured after 30 mins at 4th day of training session by Morris water maze test. It counts as functional, organism-based. As to conditions: dose 10-30 mg/kg, time 7.0 day.
For series [8], the system named is BV-2. Description: Antiinflammatory activity in LPS-stimulated mouse BV-2 cells assessed as decrease in IL-1beta level at 1 to 10 uM preincubated for 1 hr followed by LPS addition measured after 24 hrs by ELISA. As to conditions: dose 1-10 µM, time 25.0 hrs. It counts as functional, cell-based.
The subject of series [9] is BV-2. Description: Antiinflammatory activity in LPS-stimulated mouse BV-2 cells assessed as decrease in iNOS level at 1 to 10 uM preincubated for 1 hr followed by LPS addition measured after 24 hrs by Western blot analysis. It counts as functional, cell-based. As to conditions: dose 1-10 µM, time 25.0 hrs.
The nature of series [10]: Effect on body weight in C57BL mouse model of scopolamine-induced memory impairment model at 10 to 30 mg/kg, po administered for 7 days. It counts as ADME, organism-based. As to conditions: in vivo, 168 h, dose 10-30 mg/kg, time 7 day.
Series [11] relates to PC-12. Description: Inhibition of H2O2-induced intracellular ROS production in rat PC-12 cells pretreated for 6 hrs followed by H2O2 addition measured after 18 hrs by DCFH-DA assay. As to conditions: dose 1-50 µM, time 24.0 hrs. It counts as functional, cell-based.
Series [12] has as its system Mus musculus. Description: Cognitive enhancing effect in C57BL mouse model of scopolamine-induced memory impairment assessed as time in target quadrant at 10 to 30 mg/kg, po administered for 7 days and measured after 30 mins at 5th day of training session by Morris water maze test. It counts as functional, organism-based. As to conditions: dose 10-30 mg/kg, time 7.0 day.

Series [13] has as its system BV-2. Description: Antiinflammatory activity in LPS-stimulated mouse BV-2 cells assessed as decrease in TNF-alpha level at 1 to 10 uM preincubated for 1 hr followed by LPS addition measured after 24 hrs by ELISA. It counts as functional, cell-based. The note with it: dose 1-10 µM, time 25.0 hrs.
The target of series [14] is T1, Glycogen synthase kinase-3 beta (Homo sapiens, UniProt P49841). Description: Inhibition of GSK-3beta in human SH-SY5Y cells assessed as decrease in amyloid beta-induced Tau hyperphosphorylation at Ser396 pretreated for 1 hr followed Amyloid beta addition measured after 6 hrs by Western blot analysis. It counts as cell-based. The note with it: dose 5-15 µM, time 7.0 hrs.
Target sequence in this assay (P49841 whole entry, looked up): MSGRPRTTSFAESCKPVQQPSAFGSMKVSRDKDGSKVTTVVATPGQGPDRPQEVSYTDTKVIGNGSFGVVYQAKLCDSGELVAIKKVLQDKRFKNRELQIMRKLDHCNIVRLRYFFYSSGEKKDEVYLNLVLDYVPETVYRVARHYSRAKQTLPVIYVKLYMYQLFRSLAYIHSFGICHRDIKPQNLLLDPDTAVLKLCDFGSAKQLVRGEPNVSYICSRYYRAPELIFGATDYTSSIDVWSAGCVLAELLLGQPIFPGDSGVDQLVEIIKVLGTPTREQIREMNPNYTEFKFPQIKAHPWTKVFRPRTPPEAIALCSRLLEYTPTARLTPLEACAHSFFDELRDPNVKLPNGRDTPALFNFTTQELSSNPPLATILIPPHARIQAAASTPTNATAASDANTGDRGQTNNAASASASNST

Series [15] deals with HepG2. Description: Increase in glucose consumption in human HepG2 cells at 20 uM after 24 hrs by glucose oxidase assay. It counts as functional, cell-based.
Series [16] in a line: Efflux ratio of apparent permeability across basolateral to apical membrane to apical to basolateral membrane in MDCK2-MDR1 measured upto 120 mins. It counts as ADME, tissue-based, Canis lupus familiaris, MDCK-II. The note with it: dog.
Series [17] can be described thus: Cytotoxicity against rat PC-12 cells assessed as cell viability at 50 uM by MTT assay relative to control. It counts as cell-based. As to conditions: read-out: Activity.
Series [18] in a line: Cytotoxicity against rat PC-12 cells assessed as cell viability at 30 uM by MTT assay relative to control. It counts as cell-based. As to conditions: read-out: Activity.
The test system of series [19] is PC-12. Description: Neuroprotective activity against H2O2-induced cytotoxicity in rat PC12 cells assessed as increase in cell viability at 30 uM preincubated for 3 hrs followed by H2O2 addition and measured after 24 hrs by MTT assay (reference value: 24.8 to 41.7%). It counts as functional.
The test system of series [20] is BV-2. Description: Anti-neuroinflammation in mouse BV2 cells assessed as inhibition of LPS-induced NO production preincubated for 1 hr followed by LPS addition measured after 24 hrs by Griess reagent based assay. It counts as functional, cell-based. For orientation: Nitrite, measured by Griess reagent, commonly stands in for NO production.
A short description of series [21]: Apparent permeability from basolateral to apical side in MDCK2-MDR1 measured upto 120 mins. It counts as ADME, Canis lupus familiaris, MDCK-II. As to conditions: dog.
A short description of series [22]: Antioxidant activity assessed as DPPH radical scavenging activity after 2 hrs by microplate method. It counts as functional. As to conditions: dose 1-1000 µM.
Series [23] has as its system HepG2. Description: Increase in glucose consumption in human HepG2 cells at 20 uM after 24 hrs by glucose oxidase assay (reference value: 1.36 mM). It counts as functional.
The subject of series [24] is L02. Description: Cytotoxicity against human L-02 cells assessed as decreased cell viability at 50 uM after 24 hrs by MTT assay. It counts as cell-based. As to conditions: l02, 24 h.
The target of series [25] is T1, Glycogen synthase kinase-3 beta. Description: Inhibition of GSK3beta (unknown origin) measured after 40 mins by ADP-Glo assay.
Target sequence in this assay (P49841 whole entry): as the sequence (P49841 whole entry, looked up) above
Series [26] can be described thus: Apparent permeability from apical to basolateral side in MDCK2-MDR1 measured upto 120 mins. It counts as ADME, Canis lupus familiaris. As to conditions: dog, mdck-ii, 2 h.
Series [27] concerns HepG2. Description: Increase in glucose consumption in human HepG2 cells at 1 mM after 24 hrs by glucose oxidase assay (reference value: 1.36 mM). It counts as functional.
A short description of series [28]: Cytotoxicity against human L-02 cells assessed as decreased cell viability at 50 uM after 24 hrs by MTT assay relative to control. It counts as cell-based, L02. As to conditions: read-out: INH.

Turning to `CC(C)(C)c1ccc(S(=O)(=O)Nc2ccc(-c3nc(-c4ccnc(Nc5cccc(Cl)c5)c4)no3)cc2)cc1`, the inhibition entry in series [1], in series [11] and in [14] was “Dose-dependent effect” throughout. The Activity is 54.3% in series [2]; “Non-Toxic” in [4]; “Non-Toxic” in [6]; “Dose-dependent effect” in [7]; “Non-Toxic” in [10]; 64.9% in [19]. In addition, the Activity entry in [22] was “Dose-dependent effect”; in [23], 3.43 mM; in series [24] it was “Non-Toxic”. For the same compound, the inhibition entry in [3], in [8], in series [9] and in series [13] was “Active” throughout. Moreover, the result in [5], in series [12] and in series [15] was Active. For the same compound, the efflux ratio at 2 h in series [16] (MDCK-MDR1) came to 1.02. The viability at 50 µM in series [17] amounted to 97.2%. Also, the viability at 30 µM in series [18] worked out at 99.2%. Moreover, the figures for the half-inhibitory concentration (IC50) in [20] and in series [25] were 6940 nM and 190 nM, respectively. For the same compound, the Papp B→A at 2 h in [21] (MDCK-MDR1, read-out: permeability) stood at 19.3 ×10⁻⁶ cm/s. Moreover, the permeability in series [26] is reported as 1.89 10^-5 cm/s.
In series [27], `CN(C)C(=N)NC(=N)N` [METFORMIN] yielded an Activity of 3.28 mM.
As to `CC(=O)c1ccc(S(=O)(=O)Nc2ccc(-c3nc(-c4ccnc(Nc5ccc(OC(F)(F)F)cc5)c4)no3)cc2)cc1`, the inhibition entry in [1], in series [11] and in [14] was “Dose-dependent effect” in each case. Further, the Activity in series [2] was 57.1%; in series [4], “Non-Toxic”; in series [19], 68.6%; in [22] it was “Dose-dependent effect”; in series [23], 3.28 mM. The cytotoxicity at 24 h, 50 µM in [28] came to 20%. For the same compound, the inhibition result in series [3], in series [8], in series [9] and in series [13] was “Active” in each case. The Ratio in series [16] (mdck-ii, 2 h) is 1.27. For the same compound, in series [17], the viability at 50 µM came out at 98.1%. Moreover, the viability at 30 µM in series [18] stood at 99.1%. Besides, the half-inhibitory concentration (IC50) in series [20] stood at 470 nM; in series [25], 1020 nM. The permeability was 1.66 10^-5 cm/s in series [21] (mdck-ii, 2 h) and 1.31 10^-5 cm/s in series [26].
`O=[N+]([O-])c1ccc(S(=O)(=O)Nc2ccc(-c3nc(-c4ccnc(Nc5ccc(OC(F)(F)F)cc5)c4)no3)cc2)cc1`: the Activity in series [2] is 38.6%; in series [19] it was 53.4%. The result in [15] was inactive. Also, the viability at 50 µM in series [17] was found to be 90.5%. For the same compound, the viability at 30 µM in series [18] amounted to 98.5%. Also, the IC50 in series [20] is 7590 nM; in [25], > 50000 nM.
